# Publication PMC10517971, “An inverse agonist of orphan receptor GPR61 acts by a G protein-competitive allosteric mechanism” (Nature Communications, 2023)
# pIC50: −log10 of the molar value.
# Experiments:
# [1] = target: Human PDE10A1 (Homo sapiens, UniProt Q9Y233); test: Phosphodiesterase Assay (SPA); type: biochemical
# [2] = target: Cav1.2 (Homo sapiens, UniProt Q13936); test: cell-based
# Excerpt: 105 hERG, Nav1.5 and Cav1.2 Ion Channel Profiling
# 106 Ionic curr ents wer e evalu ated in the whole-cell con figuration using the Qube384 automated planar
# 107 patch clamp platform (Sophion Bioscience A/S, Ballerup, Denmark). […]
# 113 experiments, the ext ernal solution was composed of (in mM): 137.9 NaCl, 5.3 KCl, 0.49 MgCl2,
# 115 mOsM. The internal solution contained (in mM ): 27 CF, 112 CsCl, 2 MgCl2, 10 EGTA, 10
# 116 HEPES, 2 Na2ATP, pH 7.2, 305 mOsM. […]
# 123 at a rate of 0.05 Hz. Peak hERG current was measured during the ramp. The Cav1.2 current was
# 124 elicited by a voltage step to 0 mV for 150 ms from a holding potential of -40 mV. Voltage steps
# 125 were repeated at 0.05 Hz, and Cav1.2 amplitude was measured as the peak current at 0 mV. For
# 126 Nav1.5 current, from a holding potential of - 80 mV, a 200 ms prepulse to - 120 mV was used to
# 127 homogenize channel inactivation, followed by a 40 ms step to a test potential of - 15 mV.
# 128 Membrane potential was further depolarized to +40 mV for 200 ms to completely inactivate the
# 129 peak Nav1.5 current, followed by a ramp from +40 mV to - 80 mV (-1.2 mV/ms). This voltage
# 130 pattern was repeated at 0.1 Hz, with peak Nav1.5 defined as the maximum current during the step
# 131 to - 15 mV. All studies were conducted at 23° C.
# 132 Compounds were dissol ved and initially diluted in dimethyl sulfoxide (DMSO), with a final
# 133 dilution in external solution to generate final working concent rations. The final DMSO
# 134 concentration in all experiments was 0.33% (v/v).
# 135 For all protocols three vehicle periods each lasting 5 minutes were applied to establish a stable
# 136 baseline. For the standard protocol this was followed by the addition of increasing concentrations
# 137 of test compound, with each exposure lasting 5 minutes. For the “extended” protocol following
# 138 the three- vehi cle additional each well subsequentl y received a single concentration of compound.
# 139 This application was repeated three times for each well, via a flowthrough addition where the
# 140 solution was replaced wi th the same compound concentration with each addition. Each exposure
# 142 Patch clamp data were analyzed using Assay Software 6.4.72 (Sophion Bioscience A/S, Ballerup,
# 143 Denmark). Current amplitudes were determined by averaging the last 4 currents under each test
# 144 condition. The percentage inhibition of each compound was determined by taking the ratio of
# 145 current amplitude measured in the presence of various concentrations of the test compound
# 146 (ICompound) versus the vehicle control current (IVehicle):
# 148 A dose-response curve was generat ed and fit to the Hill equation by the Sophion Analyzer software
# 149 to determine an IC50 value for each compound. The minimum and the slope of the fit were free
# 150 fitted, with the top being fixed to 100% inhibition. […]
# Sequence of Cav1.2 (Q13936 whole entry): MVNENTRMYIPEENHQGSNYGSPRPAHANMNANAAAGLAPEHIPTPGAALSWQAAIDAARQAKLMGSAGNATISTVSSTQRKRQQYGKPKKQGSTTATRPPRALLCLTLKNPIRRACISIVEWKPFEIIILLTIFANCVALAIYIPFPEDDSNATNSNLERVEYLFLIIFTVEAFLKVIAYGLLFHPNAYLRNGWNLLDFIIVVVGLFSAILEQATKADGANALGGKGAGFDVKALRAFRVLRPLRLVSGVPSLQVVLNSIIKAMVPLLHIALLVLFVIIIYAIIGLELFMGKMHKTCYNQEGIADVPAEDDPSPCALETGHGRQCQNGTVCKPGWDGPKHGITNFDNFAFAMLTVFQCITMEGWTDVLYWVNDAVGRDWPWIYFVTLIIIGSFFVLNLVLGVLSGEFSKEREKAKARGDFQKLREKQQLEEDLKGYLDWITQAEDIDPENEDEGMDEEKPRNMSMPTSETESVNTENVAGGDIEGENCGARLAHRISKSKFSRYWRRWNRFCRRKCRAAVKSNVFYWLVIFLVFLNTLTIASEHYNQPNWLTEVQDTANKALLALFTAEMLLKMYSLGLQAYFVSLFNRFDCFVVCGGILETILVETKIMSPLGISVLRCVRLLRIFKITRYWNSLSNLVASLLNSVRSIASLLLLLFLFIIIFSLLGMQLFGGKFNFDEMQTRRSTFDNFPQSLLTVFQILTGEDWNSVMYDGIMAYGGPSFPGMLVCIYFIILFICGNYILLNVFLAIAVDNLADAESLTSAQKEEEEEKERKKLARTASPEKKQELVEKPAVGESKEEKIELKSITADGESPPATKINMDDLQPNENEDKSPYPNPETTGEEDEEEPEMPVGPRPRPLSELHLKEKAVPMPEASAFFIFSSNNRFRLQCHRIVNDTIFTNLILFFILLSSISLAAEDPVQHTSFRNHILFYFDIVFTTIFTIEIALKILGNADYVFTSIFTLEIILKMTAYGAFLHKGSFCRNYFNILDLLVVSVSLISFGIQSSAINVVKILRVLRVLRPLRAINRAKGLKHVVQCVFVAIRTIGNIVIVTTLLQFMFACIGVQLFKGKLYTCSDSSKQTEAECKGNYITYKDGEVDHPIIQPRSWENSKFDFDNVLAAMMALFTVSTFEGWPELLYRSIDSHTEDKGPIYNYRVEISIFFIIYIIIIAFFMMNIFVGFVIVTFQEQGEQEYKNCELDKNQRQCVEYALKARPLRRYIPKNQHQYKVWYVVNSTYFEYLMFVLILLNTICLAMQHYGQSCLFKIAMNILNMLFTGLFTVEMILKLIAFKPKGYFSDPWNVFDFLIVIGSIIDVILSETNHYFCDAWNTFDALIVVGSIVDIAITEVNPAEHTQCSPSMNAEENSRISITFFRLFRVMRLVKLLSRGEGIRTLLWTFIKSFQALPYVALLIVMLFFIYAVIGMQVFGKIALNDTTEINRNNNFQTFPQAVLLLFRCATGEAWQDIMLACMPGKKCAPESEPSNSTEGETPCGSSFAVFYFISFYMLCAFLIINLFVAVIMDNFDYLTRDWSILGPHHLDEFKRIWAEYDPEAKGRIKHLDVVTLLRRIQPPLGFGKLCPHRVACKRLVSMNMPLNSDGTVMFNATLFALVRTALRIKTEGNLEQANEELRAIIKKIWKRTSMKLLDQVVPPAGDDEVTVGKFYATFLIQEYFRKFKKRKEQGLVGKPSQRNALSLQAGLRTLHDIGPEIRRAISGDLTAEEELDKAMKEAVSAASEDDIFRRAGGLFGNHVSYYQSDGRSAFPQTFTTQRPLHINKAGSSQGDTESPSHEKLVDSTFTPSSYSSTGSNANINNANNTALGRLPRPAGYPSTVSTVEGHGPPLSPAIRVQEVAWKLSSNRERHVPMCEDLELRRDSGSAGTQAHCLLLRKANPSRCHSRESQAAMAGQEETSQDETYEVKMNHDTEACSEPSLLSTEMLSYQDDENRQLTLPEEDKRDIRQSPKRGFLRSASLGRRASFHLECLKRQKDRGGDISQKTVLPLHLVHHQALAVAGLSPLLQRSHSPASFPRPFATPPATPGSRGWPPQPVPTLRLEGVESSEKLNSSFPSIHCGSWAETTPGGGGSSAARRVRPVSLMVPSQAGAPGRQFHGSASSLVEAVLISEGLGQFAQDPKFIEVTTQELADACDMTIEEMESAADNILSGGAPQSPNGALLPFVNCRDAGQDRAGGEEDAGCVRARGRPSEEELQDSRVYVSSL
# Sequence of Cav1.2 (Q08289 whole entry partner): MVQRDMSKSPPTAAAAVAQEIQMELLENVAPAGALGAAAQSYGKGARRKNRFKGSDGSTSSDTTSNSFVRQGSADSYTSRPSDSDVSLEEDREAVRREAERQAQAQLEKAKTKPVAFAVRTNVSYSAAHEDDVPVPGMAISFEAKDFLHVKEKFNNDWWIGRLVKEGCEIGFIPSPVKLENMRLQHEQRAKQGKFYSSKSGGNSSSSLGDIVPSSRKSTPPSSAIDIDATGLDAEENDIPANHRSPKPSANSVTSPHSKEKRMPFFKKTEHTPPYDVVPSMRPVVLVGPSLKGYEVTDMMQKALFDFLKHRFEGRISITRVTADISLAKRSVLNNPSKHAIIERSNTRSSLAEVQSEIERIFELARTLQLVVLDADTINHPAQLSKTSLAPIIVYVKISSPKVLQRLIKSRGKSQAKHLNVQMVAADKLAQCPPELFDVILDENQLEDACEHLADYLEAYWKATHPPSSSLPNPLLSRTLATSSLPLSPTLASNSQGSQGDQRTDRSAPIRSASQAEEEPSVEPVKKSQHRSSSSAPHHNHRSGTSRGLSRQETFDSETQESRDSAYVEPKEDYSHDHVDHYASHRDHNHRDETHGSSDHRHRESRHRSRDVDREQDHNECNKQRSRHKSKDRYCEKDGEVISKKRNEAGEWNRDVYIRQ
# Sequence of Cav1.2 (P54289 25-956 partner limits assumed): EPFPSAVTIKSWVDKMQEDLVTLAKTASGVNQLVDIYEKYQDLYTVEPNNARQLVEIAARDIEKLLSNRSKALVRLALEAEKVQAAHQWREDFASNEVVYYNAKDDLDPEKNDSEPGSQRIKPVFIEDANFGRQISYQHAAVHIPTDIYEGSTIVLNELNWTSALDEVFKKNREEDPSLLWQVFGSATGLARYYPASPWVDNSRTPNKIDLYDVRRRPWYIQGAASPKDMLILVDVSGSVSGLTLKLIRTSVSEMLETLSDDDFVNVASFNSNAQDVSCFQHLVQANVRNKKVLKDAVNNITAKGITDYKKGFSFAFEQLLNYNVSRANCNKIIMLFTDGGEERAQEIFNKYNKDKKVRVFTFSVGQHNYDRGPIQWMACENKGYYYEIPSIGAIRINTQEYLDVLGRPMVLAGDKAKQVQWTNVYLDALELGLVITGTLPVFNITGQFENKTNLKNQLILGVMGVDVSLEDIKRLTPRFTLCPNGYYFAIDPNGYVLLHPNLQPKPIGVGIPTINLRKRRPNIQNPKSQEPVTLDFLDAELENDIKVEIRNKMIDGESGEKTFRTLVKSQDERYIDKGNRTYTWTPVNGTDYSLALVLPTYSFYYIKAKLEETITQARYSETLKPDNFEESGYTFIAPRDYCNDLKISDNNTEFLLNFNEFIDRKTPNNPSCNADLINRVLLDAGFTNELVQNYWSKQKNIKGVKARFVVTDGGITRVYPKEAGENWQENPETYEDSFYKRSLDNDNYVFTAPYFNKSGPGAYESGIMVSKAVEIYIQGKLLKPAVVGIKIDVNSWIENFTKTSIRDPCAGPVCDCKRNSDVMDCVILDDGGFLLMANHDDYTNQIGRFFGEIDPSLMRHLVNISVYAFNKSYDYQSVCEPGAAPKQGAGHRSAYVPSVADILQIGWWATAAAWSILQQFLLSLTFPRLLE
# Sequence of Cav1.2 (P54289 957-1103 partner limits assumed): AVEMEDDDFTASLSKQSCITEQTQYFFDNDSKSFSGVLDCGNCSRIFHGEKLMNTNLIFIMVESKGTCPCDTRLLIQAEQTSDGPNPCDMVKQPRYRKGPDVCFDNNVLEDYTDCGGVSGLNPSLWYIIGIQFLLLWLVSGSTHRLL
# Sequence of Human PDE10A1 (Q9Y233 1-779 isoform Q9Y233-1): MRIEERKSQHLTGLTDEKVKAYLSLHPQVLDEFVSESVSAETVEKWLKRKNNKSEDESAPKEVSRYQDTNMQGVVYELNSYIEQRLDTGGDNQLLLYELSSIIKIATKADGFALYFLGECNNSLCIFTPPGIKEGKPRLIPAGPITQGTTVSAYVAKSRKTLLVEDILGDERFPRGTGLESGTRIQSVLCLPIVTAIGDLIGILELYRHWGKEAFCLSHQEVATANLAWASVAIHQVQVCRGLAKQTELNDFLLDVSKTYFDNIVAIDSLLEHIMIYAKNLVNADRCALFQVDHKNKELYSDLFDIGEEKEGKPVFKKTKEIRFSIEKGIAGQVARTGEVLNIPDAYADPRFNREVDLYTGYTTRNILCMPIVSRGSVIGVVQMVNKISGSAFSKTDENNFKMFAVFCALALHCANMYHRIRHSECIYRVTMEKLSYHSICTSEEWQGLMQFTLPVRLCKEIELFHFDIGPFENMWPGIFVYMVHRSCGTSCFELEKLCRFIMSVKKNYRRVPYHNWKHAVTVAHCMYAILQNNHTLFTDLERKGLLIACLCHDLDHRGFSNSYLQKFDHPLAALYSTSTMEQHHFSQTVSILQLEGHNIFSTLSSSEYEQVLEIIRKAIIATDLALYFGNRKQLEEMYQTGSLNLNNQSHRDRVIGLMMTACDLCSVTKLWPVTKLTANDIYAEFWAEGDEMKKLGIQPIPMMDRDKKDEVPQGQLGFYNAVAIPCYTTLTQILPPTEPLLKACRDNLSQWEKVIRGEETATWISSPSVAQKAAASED
smiles,measurement,setting,value
CCOc1cc(C)nc(N(CCOC)S(=O)(=O)c2ccc(NCc3c(F)cncc3F)nc2OC)n1 [Compound 1],pIC50,[1],< 4.40
same,IC50,"[2]; IC50 (nM), Calcium Channel Cav1 (so in the source), standard protocol",44800 nM
same,IC50,"[2]; Ion Channel Extended Protocol IC50 (nM), Period 1st, Cav1.2, extended protocol, 1st period",21100 nM
same,IC50,"[2]; Ion Channel Extended Protocol IC50 (nM), Period 2nd, Cav1.2, extended protocol, 2nd period",10700 nM
same,IC50,"[2]; Ion Channel Extended Protocol IC50 (nM), Period 3rd, Cav1.2, extended protocol, 3rd period",5930 nM
